In patent US20250041429A1, “COMPOUND HAVING BTK PROTEIN DEGRADATION ACTIVITY, AND MEDICAL USES THEREOF” (UBIX THERAPEUTICS, INC., priority 2021, published 2025):

Molecular target: T1, BTK protein (Homo sapiens, UniProt Q06187)
T1 construct: endogenous in cells; host or cells: TMD-8 cells
Experiment: Measurement of BTK protein degradation ability in TMD-8 cells (Western blotting)
Format: cell-based
Settings: harvested after 24 hours; for BTK degradation (%) 10 nM: compound 10 nM; for BTK degradation (%) 100 nM: compound 100 nM; for BTK degradation (%) 1 nM: compound 1 nM
Experimental: TMD-8, RAMOS, or 293T BTK MUT (C481S) cells were treated with the synthesized compounds, and then the amount of BTK protein present in the cells was measured using Western blotting detection. The protocol for the experiment conducted using TMD-8 cells was as follows:
[Culture] TMD-8 cells were resuspended in RPMI1640 MEDIUM (Hyclone, SH30027.01), 10% FBS (Hyclone, SV30207.02), and 1% Penicillin-streptomycin (Welgene, LS 202-02) media, and 1 mL of this suspension was seeded in a 12-well plate at a cell concentration of 1×10^6/mL.
[Compound treatment] The 12-well plate was treated as follows: The 10 mM stock was serially diluted 1/10 with DMSO (3 μL+27 μL DMSO), and cells were treated with compounds at final concentrations of 0.1, 1, 10 μM or 0.0001, 0.001, 0.01, 0.1 μM, and harvested after 24 hours. In the negative control group, DMSO diluted 1/10 was added to the media. (3 μL DMSO+27 μL media)
[Harvest] Each well was pipetted with a 1 mL pipette, collected in a 1.5 mL microtube, and centrifuged (500 g, 5 min, 4° C.). After removing the supernatant, it was washed with PBS and centrifuged again (500 g, 5 min, 4° C.). The supernatant was removed and the pellet was collected.
[Cell lysis and Sample preparation] lysis buffer was prepared as follows: RIPA buffer (Biosesang, RC2038-050-00), 0.5 mM PMSF (SIGMA, P7626) and 1× Protease/Phosphatase Inhibitor (Cell signaling, 5872S) were added at 60-70 μL per well and left on ice for 30 minutes. (Vortexing at 0 and 30 minutes, respectively), followed by sonication (10 seconds pulse, 30 seconds rest, 5 cycles, 70% amplification) and centrifuge (15000 g, 15 min, 4° C.). Only the supernatant was collected and transferred to a new microtube. The samples were diluted by ½ with RIPA buffer in a 96-well plate. 200 μL of the mixture A:B=50:1 of the BCA Protein Assay Kit (iNtRON, 21071) was added each, stayed at 37° C. for 30 minutes, and cooled for 10 minutes. Afterwards, absorbance was measured at 562 nm using BioTek's SYNERGY H1 microplate reader. After making a sample by quantifying the protein using the measured value, it was boiled at 70° C. for 10 minutes. The sample buffer used at this time was a mixture of NuPAGE or Bolt 4× sample buffer (Invitrogen) and each 10× sample reducing agent according to the gel to be used. RIPA buffer was used for protein dilution.
[Western blotting detection method] The same amount of sample was loaded on NuPAGE or Bolt Bis-tris 4-12% gradient gel and run (200 V, 35 minutes). It was transferred to a […] NC membrane using Trans-blot Turbo (BIO-RAD) (1.3 A constant, 25 V limit, 15 minutes). For blocking, skim milk or Intercept Blocking Buffer (LI-COR, 927-60001): 0.1% TBST=1:1 was used at room temperature for 1 hour. Anti BTK Rabbit (1:1,000 in 5% skim milk/0.2% TBST, size: 77 kDa, Cell signaling Technology) was reacted at 4° C. for 16 hours or at room temperature for 2 hours. Anti GAPDH Rabbit (1:10,000 in 5% BSA/0.2% TBST, size: 36 kDa, GENETEX) and Anti β-actin mouse (1:10,000 in 5% BSA/0.2% TBST, RT, size: 43 kDa, GENETEX) were reacted at room temperature for 1 hour or 3 hours. The samples were washed 3 times with 0.5% TBST for 5 minutes each. Secondary antibodies, Anti-Rabbit IgG (1:5,000 in 5% Skim milk/TBST, CST), IRDye® 800CW Goat anti-Rabbit IgG Secondary Antibody (1:10,000 in 5% skim/TBST, RT 45 min), IRDye® 680RD Goat anti-Mouse IgG Secondary Antibody (1:10,000 in 5% skim/TBST, RT 45 min) were added depending on each sample and reacted for 45 minutes on a rocker at room temperature. The samples were washed 5 times with 0.5% TBST for 5 minutes each and detected with LI-COR's Odyssey. At this time, BTK was detected using SuperSignal West Pico PLUS Chemiluminescent Substrate or SuperSignal West femto Maximum Sensitivity Substrate, and house-keeping genes were detected as is.

T1 sequence (Q06187 whole entry): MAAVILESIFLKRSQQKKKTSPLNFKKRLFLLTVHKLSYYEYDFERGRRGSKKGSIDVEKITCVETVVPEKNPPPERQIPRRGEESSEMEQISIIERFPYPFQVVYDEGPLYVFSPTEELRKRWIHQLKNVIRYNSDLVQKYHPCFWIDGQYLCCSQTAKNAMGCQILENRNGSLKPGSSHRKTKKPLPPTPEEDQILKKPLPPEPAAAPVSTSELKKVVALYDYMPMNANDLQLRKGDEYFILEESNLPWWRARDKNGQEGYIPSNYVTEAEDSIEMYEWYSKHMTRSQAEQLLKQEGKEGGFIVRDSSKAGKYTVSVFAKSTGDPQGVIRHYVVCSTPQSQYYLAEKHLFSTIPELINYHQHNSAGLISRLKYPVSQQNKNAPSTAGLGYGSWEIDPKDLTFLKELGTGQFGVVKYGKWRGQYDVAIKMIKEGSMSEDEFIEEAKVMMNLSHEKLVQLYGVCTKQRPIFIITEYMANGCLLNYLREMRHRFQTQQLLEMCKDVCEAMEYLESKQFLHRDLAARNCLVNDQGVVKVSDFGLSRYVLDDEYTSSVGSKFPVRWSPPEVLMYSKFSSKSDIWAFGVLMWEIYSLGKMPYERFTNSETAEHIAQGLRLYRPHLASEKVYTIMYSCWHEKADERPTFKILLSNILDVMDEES

| SMILES | BTK degradation (%) 10 nM [%] | BTK degradation (%) 100 nM [%] | BTK degradation (%) 1 nM [%] |
| --- | --- | --- | --- |
| Cc1cc(-c2ccnc(Nc3ccc4c(c3)CN(CC3CCN(c5ccc6c(c5)C(=O)N(C5CCC(=O)NC5=O)C6=O)CC3)CC4)n2)ccc1CNC(=O)N1CC(OC(C)C)C1 (stereo not drawn) [Example 1, N-(4-(2-((2-((1-(2-(2,6-dioxopiperidin-3-yl)-1,3-dioxoisoindolin-5-yl)piperidin-4-yl)methyl)-1,2,3,4-tetrahydroisoquinolin-7-yl)amino)pyrimidin-4-yl)-2-methylbenzyl)-3-isopropoxyazetidine-1-carboxamide] | 92 | 97.5 | – |
| Cc1cc(-c2ccnc(Nc3ccc4c(c3)CN(CC3CCN(c5ccc6c(c5)C(=O)N(C5CCC(=O)NC5=O)C6=O)CC3)CC4)n2)ccc1CNC(=O)c1cnn(C(C)(C)C)c1 (stereo not drawn) [Example 2, 1-(tert-butyl)-N-(4-(2-((2-((1-(2-(2,6-dioxopiperidin-3-yl)-1,3-dioxoisoindolin-5-yl)piperidin-4-yl)methyl)-1,2,3,4-tetrahydroisoquinolin-7-yl)amino)pyrimidin-4-yl)-2-methylbenzyl)-1H-pyrazole-4-carboxamide] | 84.5 | 94 | – |
| Cc1cc(-c2ccnc(Nc3ccc4c(c3)CN(CC3CCN(c5ccc6c(c5)C(=O)N(C5CCC(=O)NC5=O)C6=O)CC3)CC4)n2)ccc1CNC(=O)c1cn(C(C)(C)C)nn1 (stereo not drawn) [Example 3, 1-(tert-butyl)-N-(4-(2-((2-((1-(2-(2,6-dioxopiperidin-3-yl)-1,3-dioxoisoindolin-5-yl)piperidin-4-yl)methyl)-1,2,3,4-tetrahydroisoquinolin-7-yl)amino)pyrimidin-4-yl)-2-methylbenzyl)-1H-1,2,3-triazole-4-carboxamide] | 84 | 93 | – |
| Cc1c(NC(=O)N2CC(OC(C)C)C2)cc(F)cc1-c1ccnc(Nc2ccc3c(c2)CN(CC2CCN(c4ccc5c(c4)C(=O)N(C4CCC(=O)NC4=O)C5=O)CC2)CC3)n1 (stereo not drawn) [Example 4, N-(3-(2-((2-((1-(2-(2,6-dioxopiperidin-3-yl)-1,3-dioxoisoindolin-5-yl)piperidin-4-yl)methyl)-1,2,3,4-tetrahydroisoquinolin-7-yl)amino)pyrimidin-4-yl)-5-fluoro-2-methylphenyl)-3-isopropoxyazetidine-1-carboxamide] | −3.5 | 29 | – |
| Cc1c(NC(=O)c2cnn(C(C)(C)C)c2)cc(F)cc1-c1ccnc(Nc2ccc3c(c2)CN(CC2CCN(c4ccc5c(c4)C(=O)N(C4CCC(=O)NC4=O)C5=O)CC2)CC3)n1 (stereo not drawn) [Example 5, 1-(tert-butyl)-N-(3-(2-((2-((1-(2-(2,6-dioxopiperidin-3-yl)-1,3-dioxoisoindolin-5-yl)piperidin-4-yl)methyl)-1,2,3,4-tetrahydroisoquinolin-7-yl)amino)pyrimidin-4-yl)-5-fluoro-2-methylphenyl)-1H-pyrazole-4-carboxamide] | −12 | −7 | – |
| Cc1c(NC(=O)c2cn(C(C)(C)C)nn2)cc(F)cc1-c1ccnc(Nc2ccc3c(c2)CN(CC2CCN(c4ccc5c(c4)C(=O)N(C4CCC(=O)NC4=O)C5=O)CC2)CC3)n1 (stereo not drawn) [Example 6, 1-(tert-butyl)-N-(3-(2-((2-((1-(2-(2,6-dioxopiperidin-3-yl)-1,3-dioxoisoindolin-5-yl)piperidin-4-yl)methyl)-1,2,3,4-tetrahydroisoquinolin-7-yl)amino)pyrimidin-4-yl)-5-fluoro-2-methylphenyl)-1H-1,2,3-triazole-4-carboxamide] | −2.5 | 10 | – |
| Cc1cc(-c2ccnc(Nc3ccc(N4CCN(CC5CCN(c6ccc7c(c6)C(=O)N(C6CCC(=O)NC6=O)C7=O)CC5)CC4)cc3)n2)ccc1CNC(=O)N1CC(OC(C)C)C1 (stereo not drawn) [Example 7, N-(4-(2-((4-(4-((1-(2-(2,6-dioxopiperidin-3-yl)-1,3-dioxoisoindolin-5-yl)piperidin-4-yl)methyl)piperazin-1-yl)phenyl)amino)pyrimidin-4-yl)-2-methylbenzyl)-3-isopropoxyazetidine-1-carboxamide] | 90 | 98.5 | – |
| Cc1cc(-c2ccnc(Nc3ccc(N4CCN(CC5CCN(c6ccc7c(c6)C(=O)N(C6CCC(=O)NC6=O)C7=O)CC5)CC4)cc3)n2)ccc1CNC(=O)c1cnn(C(C)(C)C)c1 (stereo not drawn) [Example 8, 1-(tert-butyl)-N-(4-(2-((4-(4-((1-(2-(2,6-dioxopiperidin-3-yl)-1,3-dioxoisoindolin-5-yl)piperidin-4-yl)methyl)piperazin-1-yl)phenyl)amino)pyrimidin-4-yl)-2-methylbenzyl)-1H-pyrazole-4-carboxamide] | 89.5 | 97.5 | – |
| Cc1cc(-c2ccnc(Nc3ccc(N4CCN(CC5CCN(c6ccc7c(c6)C(=O)N(C6CCC(=O)NC6=O)C7=O)CC5)CC4)cc3)n2)ccc1CNC(=O)c1cn(C(C)(C)C)nn1 (stereo not drawn) [Example 9, 1-(tert-butyl)-N-(4-(2-((4-(4-((1-(2-(2,6-dioxopiperidin-3-yl)-1,3-dioxoisoindolin-5-yl)piperidin-4-yl)methyl)piperazin-1-yl)phenyl)amino)pyrimidin-4-yl)-2-methylbenzyl)-1H-1,2,3-triazole-4-carboxamide] | 76.5 | 96.5 | – |
| Cc1cc(-c2ccnc(Nc3ccc(N4CCN(CC5CCN(c6ccc7c(n6)CN(C6CCC(=O)NC6=O)C7=O)CC5)CC4)cc3)n2)ccc1CNC(=O)N1CC(OC(C)C)C1 (stereo not drawn) [Example 10, N-(4-(2-((4-(4-((1-(6-(2,6-dioxopiperidin-3-yl)-5-oxo-6,7-dihydro-5H-pyrrolo[3,4-b]pyridin-2-yl)piperidin-4-yl)methyl)piperazin-1-yl)phenyl)amino)pyrimidin-4-yl)-2-methylbenzyl)-3-isopropoxyazetidine-1-carboxamide] | 94.5 | 98.5 | 56 |
| Cc1cc(-c2ccnc(Nc3ccc(N4CCN(CC5CN(c6ccc7c(c6)C(=O)N(C6CCC(=O)NC6=O)C7=O)C5)CC4)cc3)n2)ccc1CNC(=O)N1CC(OC(C)C)C1 (stereo not drawn) [Example 11, N-(4-(2-((4-(4-((1-(2-(2,6-dioxopiperidin-3-yl)-1,3-dioxoisoindolin-5-yl)azetidin-3-yl)methyl)piperazin-1-yl)phenyl)amino)pyrimidin-4-yl)-2-methylbenzyl)-3-isopropoxyazetidine-1-carboxamide] | 93.5 | 98.5 | 60 |
| Cc1cc(-c2ccnc(Nc3ccc(N4CCN(CC5CCN(c6cc7c(cc6F)C(=O)N(C6CCC(=O)NC6=O)C7=O)CC5)CC4)cc3)n2)ccc1CNC(=O)N1CC(OC(C)C)C1 (stereo not drawn) [Example 12, N-(4-(2-((4-(4-((1-(2-(2,6-dioxopiperidin-3-yl)-6-fluoro-1,3-dioxoisoindolin-5-yl)piperidin-4-yl)methyl)piperazin-1-yl)phenyl)amino)pyrimidin-4-yl)-2-methylbenzyl)-3-isopropoxyazetidine-1-carboxamide] | 84.5 | 98.5 | 23.5 |
